Results on 6 compounds are retold here after ChEMBL document CHEMBL3991601, “The target landscape of clinical kinase drugs” (Science, 2017).

The target of assay [1] is S-adenosylmethionine synthase isoform type-2 (Homo sapiens, UniProt P31153).
For assay [2], the target named is Serine/threonine-protein kinase 26 (Homo sapiens, UniProt Q9P289).
In assay [3] the target is Proto-oncogene tyrosine-protein kinase Src (Homo sapiens, UniProt P12931).
Assay [4] deals with Ribosomal protein S6 kinase alpha-6 (Homo sapiens, UniProt Q9UK32).
The target of assay [5] is Dual specificity protein kinase CLK1 (Homo sapiens, UniProt P49759).
The target of assay [6] is Non-receptor tyrosine-protein kinase TYK2 (Homo sapiens, UniProt P29597).
The target of assay [7] is Maternal embryonic leucine zipper kinase (Homo sapiens, UniProt Q14680).
The target in assay [8] is 5'-AMP-activated protein kinase catalytic subunit alpha-1 (Homo sapiens, UniProt Q13131).
For assay [9], the target named is T1, Dynamin-like GTPase OPA1, mitochondrial (Homo sapiens, UniProt O60313).
T1 sequence (O60313 whole entry): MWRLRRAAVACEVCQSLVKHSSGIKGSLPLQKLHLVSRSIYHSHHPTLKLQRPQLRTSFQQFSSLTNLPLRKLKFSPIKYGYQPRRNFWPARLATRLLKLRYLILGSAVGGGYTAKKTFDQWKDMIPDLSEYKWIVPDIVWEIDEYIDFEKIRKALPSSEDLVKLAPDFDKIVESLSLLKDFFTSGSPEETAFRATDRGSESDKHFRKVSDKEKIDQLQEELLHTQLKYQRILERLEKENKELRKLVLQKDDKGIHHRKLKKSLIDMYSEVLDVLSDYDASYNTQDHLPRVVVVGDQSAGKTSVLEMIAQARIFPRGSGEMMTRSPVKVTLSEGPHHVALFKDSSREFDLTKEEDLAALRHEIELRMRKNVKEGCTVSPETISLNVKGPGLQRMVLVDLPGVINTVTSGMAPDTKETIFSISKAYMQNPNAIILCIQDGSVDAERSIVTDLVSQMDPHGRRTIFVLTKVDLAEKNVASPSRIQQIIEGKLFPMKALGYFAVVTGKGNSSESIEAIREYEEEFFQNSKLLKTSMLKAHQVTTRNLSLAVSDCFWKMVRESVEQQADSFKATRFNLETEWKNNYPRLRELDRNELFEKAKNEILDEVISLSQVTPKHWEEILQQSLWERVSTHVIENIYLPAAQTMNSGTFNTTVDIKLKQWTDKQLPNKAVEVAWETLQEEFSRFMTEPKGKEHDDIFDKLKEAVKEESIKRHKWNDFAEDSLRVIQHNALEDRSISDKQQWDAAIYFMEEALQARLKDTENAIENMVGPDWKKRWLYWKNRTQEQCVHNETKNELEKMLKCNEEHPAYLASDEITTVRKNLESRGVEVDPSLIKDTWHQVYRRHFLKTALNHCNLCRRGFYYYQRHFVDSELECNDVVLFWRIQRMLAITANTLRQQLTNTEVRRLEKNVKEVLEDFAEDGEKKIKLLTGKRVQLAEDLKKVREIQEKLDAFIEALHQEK

In assay [10] the target is Cyclin-dependent kinase 17 (Homo sapiens, UniProt Q00537).
Assay [11] addresses Rho-associated protein kinase 1 (Homo sapiens, UniProt Q13464).
Assay [12] deals with T2, Non-receptor tyrosine-protein kinase TNK1 (Homo sapiens, UniProt Q13470).
T2 sequence (Q13470 whole entry): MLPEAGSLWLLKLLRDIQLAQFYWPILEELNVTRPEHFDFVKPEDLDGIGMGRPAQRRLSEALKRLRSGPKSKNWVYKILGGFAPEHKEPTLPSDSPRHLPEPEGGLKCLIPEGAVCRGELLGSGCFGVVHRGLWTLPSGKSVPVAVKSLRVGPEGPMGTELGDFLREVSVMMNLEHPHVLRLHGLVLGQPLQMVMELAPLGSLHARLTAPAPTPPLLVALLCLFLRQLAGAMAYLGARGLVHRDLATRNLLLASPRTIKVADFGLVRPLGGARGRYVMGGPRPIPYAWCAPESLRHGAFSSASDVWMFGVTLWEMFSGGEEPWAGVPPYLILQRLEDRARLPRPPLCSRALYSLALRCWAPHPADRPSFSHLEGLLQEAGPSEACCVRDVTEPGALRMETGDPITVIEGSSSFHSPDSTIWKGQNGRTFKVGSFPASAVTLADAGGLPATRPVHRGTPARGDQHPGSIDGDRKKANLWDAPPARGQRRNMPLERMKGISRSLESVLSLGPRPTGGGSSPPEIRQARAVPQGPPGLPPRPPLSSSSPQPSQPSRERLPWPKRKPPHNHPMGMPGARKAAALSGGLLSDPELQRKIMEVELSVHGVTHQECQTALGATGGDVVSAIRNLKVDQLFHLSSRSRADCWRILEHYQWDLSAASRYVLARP

Assay [13] concerns the target Hepatocyte growth factor receptor (Homo sapiens, UniProt P08581).
Another assay has as its target Adenosine kinase (Homo sapiens, UniProt P55263).
In another assay the target is T3, Scaffold protein ILK (Homo sapiens, UniProt Q13418).
T3 sequence (Q13418 whole entry): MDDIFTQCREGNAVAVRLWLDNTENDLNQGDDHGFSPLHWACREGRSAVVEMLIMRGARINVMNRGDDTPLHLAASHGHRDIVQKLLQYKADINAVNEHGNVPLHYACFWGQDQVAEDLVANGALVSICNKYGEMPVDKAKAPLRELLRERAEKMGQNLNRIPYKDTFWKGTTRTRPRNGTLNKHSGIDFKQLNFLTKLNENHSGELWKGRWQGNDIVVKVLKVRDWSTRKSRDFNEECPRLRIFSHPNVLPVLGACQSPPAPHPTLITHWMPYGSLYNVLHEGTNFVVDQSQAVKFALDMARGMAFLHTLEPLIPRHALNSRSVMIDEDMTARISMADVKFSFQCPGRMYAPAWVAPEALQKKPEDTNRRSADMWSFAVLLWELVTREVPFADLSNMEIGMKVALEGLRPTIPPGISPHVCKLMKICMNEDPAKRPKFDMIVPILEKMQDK

For assay [14], the target named is STE20-like serine/threonine-protein kinase (Homo sapiens, UniProt Q9H2G2).
The target of assay [15] is Mitotic checkpoint serine/threonine-protein kinase BUB1 (Homo sapiens, UniProt O43683).
Assay [16] has as its target Mitogen-activated protein kinase kinase kinase kinase 4 (Homo sapiens, UniProt O95819).

SMILES strings stand for the structures. Active and inactive are the calls of the source. Cut-off read from the data, not from the text of the source, for most assays here: actives have a measured Kd and inactives only a lower limit.
Note: in the data inactive means no Kd found up to 30 µM.

Chain of Maternal embryonic leucine zipper kinase (Q14680 whole entry): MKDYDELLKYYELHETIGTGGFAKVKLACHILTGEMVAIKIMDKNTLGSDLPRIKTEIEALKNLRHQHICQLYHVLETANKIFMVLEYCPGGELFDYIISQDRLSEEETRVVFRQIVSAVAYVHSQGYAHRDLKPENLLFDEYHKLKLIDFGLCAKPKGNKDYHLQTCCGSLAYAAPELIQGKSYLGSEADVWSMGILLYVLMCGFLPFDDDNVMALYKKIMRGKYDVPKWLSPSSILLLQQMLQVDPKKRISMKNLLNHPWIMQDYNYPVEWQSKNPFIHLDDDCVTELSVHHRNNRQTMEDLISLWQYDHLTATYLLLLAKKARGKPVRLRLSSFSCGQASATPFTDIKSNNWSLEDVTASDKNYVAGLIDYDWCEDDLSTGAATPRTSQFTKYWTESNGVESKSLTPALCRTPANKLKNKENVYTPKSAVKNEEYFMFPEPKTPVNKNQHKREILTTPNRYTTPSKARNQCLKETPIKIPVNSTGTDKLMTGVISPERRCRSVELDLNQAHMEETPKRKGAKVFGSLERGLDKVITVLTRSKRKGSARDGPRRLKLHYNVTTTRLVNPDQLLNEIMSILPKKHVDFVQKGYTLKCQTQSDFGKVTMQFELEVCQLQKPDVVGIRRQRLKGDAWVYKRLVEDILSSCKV
Chain of 5'-AMP-activated protein kinase catalytic subunit alpha-1 (Q13131 whole entry): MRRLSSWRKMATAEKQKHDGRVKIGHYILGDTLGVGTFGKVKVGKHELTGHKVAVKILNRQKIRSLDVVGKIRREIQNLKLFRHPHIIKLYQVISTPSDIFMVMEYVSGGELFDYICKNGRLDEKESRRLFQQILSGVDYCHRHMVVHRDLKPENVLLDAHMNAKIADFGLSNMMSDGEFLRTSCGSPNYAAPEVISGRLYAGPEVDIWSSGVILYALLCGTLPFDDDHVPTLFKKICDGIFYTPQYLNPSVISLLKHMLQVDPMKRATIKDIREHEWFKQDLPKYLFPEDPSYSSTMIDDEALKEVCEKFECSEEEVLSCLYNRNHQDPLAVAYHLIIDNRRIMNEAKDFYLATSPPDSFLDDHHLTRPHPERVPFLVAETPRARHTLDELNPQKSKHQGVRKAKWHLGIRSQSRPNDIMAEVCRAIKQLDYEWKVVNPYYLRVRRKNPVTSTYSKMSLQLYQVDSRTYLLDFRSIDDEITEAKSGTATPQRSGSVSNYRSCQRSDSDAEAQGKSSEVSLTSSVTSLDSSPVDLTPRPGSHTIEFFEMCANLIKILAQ
Chain of STE20-like serine/threonine-protein kinase (Q9H2G2 whole entry): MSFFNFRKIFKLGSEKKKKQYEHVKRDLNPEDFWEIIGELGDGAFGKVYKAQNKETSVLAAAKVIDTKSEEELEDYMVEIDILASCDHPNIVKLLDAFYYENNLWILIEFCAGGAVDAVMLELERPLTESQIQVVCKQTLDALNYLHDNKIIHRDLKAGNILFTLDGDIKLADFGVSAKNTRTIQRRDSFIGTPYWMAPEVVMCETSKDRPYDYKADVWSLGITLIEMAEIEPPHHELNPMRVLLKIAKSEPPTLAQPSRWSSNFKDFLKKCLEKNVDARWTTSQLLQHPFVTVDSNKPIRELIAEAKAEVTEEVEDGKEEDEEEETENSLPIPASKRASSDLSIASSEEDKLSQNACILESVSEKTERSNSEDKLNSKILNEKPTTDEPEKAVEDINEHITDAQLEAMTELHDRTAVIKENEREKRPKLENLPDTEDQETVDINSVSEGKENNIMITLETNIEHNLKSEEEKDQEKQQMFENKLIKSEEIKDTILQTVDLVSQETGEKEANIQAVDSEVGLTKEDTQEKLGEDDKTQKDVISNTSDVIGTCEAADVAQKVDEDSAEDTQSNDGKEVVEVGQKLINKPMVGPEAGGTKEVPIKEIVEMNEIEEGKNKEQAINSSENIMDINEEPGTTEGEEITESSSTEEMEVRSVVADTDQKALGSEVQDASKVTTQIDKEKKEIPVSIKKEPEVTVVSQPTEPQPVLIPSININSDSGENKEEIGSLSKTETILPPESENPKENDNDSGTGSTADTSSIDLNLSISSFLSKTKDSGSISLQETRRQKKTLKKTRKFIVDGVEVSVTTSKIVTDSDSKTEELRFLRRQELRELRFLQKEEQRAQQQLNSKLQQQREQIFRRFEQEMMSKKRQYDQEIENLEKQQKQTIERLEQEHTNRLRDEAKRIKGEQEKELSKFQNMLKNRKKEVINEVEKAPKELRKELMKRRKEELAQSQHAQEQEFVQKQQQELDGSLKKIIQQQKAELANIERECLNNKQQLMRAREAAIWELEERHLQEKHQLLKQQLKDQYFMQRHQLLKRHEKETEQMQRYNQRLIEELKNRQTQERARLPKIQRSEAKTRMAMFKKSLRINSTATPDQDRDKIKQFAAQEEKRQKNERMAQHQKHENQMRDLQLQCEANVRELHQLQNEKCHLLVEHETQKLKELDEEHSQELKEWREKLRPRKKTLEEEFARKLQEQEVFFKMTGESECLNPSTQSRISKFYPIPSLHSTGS
Chain of Mitogen-activated protein kinase kinase kinase kinase 4 (O95819 whole entry): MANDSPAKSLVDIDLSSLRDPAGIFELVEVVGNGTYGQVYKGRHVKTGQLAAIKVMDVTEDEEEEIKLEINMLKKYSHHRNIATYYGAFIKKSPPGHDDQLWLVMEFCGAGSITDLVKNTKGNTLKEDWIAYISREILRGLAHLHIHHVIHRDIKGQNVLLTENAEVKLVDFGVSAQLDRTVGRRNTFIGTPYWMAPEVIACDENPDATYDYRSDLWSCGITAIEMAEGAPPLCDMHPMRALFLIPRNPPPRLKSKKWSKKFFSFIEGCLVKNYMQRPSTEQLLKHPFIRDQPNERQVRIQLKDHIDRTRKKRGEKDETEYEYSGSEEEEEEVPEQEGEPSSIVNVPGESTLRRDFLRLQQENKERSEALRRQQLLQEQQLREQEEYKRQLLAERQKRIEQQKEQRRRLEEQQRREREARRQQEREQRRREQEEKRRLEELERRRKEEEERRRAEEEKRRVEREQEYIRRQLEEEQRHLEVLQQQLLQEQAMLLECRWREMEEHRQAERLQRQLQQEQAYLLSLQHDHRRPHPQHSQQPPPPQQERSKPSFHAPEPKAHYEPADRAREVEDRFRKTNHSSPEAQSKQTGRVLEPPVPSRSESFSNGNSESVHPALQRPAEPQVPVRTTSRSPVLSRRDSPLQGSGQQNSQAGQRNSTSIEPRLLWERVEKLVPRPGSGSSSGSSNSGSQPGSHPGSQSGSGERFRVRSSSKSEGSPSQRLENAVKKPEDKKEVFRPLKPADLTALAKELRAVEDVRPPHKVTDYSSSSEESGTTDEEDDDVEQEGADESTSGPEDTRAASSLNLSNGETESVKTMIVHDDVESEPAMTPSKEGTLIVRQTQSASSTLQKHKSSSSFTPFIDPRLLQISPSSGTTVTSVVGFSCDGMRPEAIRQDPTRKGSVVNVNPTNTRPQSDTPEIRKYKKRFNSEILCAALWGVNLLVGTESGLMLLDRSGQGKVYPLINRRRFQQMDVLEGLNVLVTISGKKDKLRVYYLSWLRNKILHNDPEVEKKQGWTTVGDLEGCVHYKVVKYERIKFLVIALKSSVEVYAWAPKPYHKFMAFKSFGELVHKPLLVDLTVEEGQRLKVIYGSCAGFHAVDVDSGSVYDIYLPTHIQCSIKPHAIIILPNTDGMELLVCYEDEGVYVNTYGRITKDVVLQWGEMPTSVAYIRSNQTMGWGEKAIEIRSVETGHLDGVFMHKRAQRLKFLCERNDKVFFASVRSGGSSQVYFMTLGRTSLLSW
Chain of Cyclin-dependent kinase 17 (Q00537 whole entry): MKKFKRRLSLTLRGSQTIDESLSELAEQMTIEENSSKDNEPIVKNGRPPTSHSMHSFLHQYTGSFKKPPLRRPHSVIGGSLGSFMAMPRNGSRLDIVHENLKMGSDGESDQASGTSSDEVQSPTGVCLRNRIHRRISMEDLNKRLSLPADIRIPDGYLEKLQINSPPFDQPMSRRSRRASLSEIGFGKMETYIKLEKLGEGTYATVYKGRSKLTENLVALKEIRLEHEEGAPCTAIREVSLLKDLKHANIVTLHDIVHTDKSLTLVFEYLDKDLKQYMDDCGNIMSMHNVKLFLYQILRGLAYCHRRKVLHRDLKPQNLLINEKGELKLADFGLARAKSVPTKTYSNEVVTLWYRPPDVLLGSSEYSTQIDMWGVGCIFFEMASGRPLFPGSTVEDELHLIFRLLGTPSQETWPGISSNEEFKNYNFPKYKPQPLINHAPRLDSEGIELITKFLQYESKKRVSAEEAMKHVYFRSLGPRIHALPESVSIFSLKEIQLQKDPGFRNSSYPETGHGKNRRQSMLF
Chain of Adenosine kinase (P55263 whole entry): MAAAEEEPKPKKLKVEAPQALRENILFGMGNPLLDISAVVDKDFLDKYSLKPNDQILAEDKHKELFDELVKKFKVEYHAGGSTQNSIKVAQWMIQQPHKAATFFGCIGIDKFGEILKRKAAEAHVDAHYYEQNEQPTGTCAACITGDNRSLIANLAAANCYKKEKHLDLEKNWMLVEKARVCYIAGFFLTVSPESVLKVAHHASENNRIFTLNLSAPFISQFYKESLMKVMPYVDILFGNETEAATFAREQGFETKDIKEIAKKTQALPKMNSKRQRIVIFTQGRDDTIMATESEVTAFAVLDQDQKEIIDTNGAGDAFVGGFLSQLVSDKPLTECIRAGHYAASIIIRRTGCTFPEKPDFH
Chain of Serine/threonine-protein kinase 26 (Q9P289 whole entry): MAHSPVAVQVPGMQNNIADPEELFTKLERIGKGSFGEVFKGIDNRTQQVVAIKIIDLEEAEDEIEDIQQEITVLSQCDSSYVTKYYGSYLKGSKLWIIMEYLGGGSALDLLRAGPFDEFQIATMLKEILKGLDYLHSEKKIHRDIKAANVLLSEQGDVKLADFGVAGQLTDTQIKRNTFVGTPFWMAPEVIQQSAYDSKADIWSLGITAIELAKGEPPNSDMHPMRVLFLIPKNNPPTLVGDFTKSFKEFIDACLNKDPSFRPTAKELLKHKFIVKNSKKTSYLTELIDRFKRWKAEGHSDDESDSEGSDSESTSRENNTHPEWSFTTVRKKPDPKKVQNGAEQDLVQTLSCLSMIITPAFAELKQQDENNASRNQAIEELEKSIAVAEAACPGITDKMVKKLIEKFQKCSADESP

For `Cc1nc2cc(-c3nn(C(C)C)c4ncnc(N)c34)ccc2o1`, the Kd is > 30 µM (inactive) in assay [1]; 2.19 µM (active) in assay [2]; > 30 µM (inactive) in [3]; > 30 µM (inactive) in assay [4]; > 30 µM (inactive) in assay [5]; > 30 µM (inactive) in assay [6]. For the same compound, the Kd was 8.21 µM (active) in assay [7]; > 30 µM (inactive) in [8]; > 30 µM (inactive) in [9]; > 30 µM (inactive) in [10]; > 30 µM (inactive) in assay [11]; > 30 µM (inactive) in assay [12]. Moreover, the Kd (in assay [13]; on Adenosine kinase; at Scaffold protein ILK; in assay [14]; in assay [15]) was > 30 µM (inactive) each time.

As to `Cc1nc(NC(=O)N2CCC[C@H]2C(N)=O)sc1-c1ccnc(C(C)(C)C(F)(F)F)c1` [ALPELISIB], the Kd in assay [1], in assay [2], in assay [3], in assay [4], in [5] and in assay [6] was > 30 µM (inactive) each time. In addition, the Kd in assay [7], in [8], in [9], in assay [11], in assay [12] and in assay [16] was > 30 µM (inactive) throughout. Besides, the Kd (in assay [13]; on Adenosine kinase; in [14]) was > 30 µM (inactive) each time.

As for `Cc1csc(-c2nnc(Nc3ccc(Oc4ncccc4-c4ccnc(N)n4)cc3)c3ccccc23)c1` [AMG-900], the Kd is 3.02 µM (active) in assay [2]; > 30 µM (inactive) in assay [3]; > 30 µM (inactive) in [4]; 2.46 µM (active) in assay [5]; > 30 µM (inactive) in [6]; > 30 µM (inactive) in [7]. Further, the Kd in [8], in assay [9], in [10], in [11], in assay [12] and in [16] was > 30 µM (inactive) throughout. The Kd (in assay [13]; at Adenosine kinase; in [14]; in assay [15]) was > 30 µM (inactive) each time.

With `C=CC(=O)Nc1cc2c(Nc3ccc(F)c(Cl)c3)ncnc2cc1C#CC(C)(C)N1CCN(C)CC1` [AV-412 FREE BASE], the Kd in [1], in assay [2], in [3], in [4], in assay [5] and in assay [6] was > 30 µM (inactive) each time. Besides, the Kd in [7], in [8], in assay [9], in [11], in assay [12] and in assay [16] was > 30 µM (inactive) throughout. Also, the Kd in assay [13] was > 30 µM (inactive); at Adenosine kinase, > 30 µM (inactive); on Scaffold protein ILK it was > 30 µM (inactive); in assay [14], 13.4 µM (active); in [15] it was > 30 µM (inactive).

With `FC(F)(F)c1ccc(/C=C/c2nc(COc3ccc(CCCCn4ccnn4)cc3)co2)cc1` [MUBRITINIB], the Kd in assay [2], in [3], in [4], in assay [5], in assay [6] and in assay [7] was > 30 µM (inactive) in each case. Besides, the Kd in assay [8], in assay [9], in [10], in [11], in assay [12] and in [16] was > 30 µM (inactive) throughout. Further, the Kd (in assay [13]; on Adenosine kinase; at Scaffold protein ILK; in assay [14]; in [15]) was > 30 µM (inactive) in each case.

Take `CO[C@H]1C[C@@H]2CC[C@@H](C)[C@@](O)(O2)C(=O)C(=O)N2CCCC[C@H]2C(=O)O[C@H]([C@H](C)C[C@@H]2CC[C@@H](OP(C)(C)=O)[C@H](OC)C2)CC(=O)[C@H](C)/C=C(\C)[C@@H](O)[C@@H](OC)C(=O)[C@H](C)C[C@H](C)/C=C/C=C/C=C/1C` [RIDAFOROLIMUS]: the Kd in assay [2], in assay [3], in assay [4], in [5], in assay [6] and in [7] was > 30 µM (inactive) in each case. The Kd in [8], in assay [9], in assay [10], in assay [11], in assay [12] and in [16] was > 30 µM (inactive) each time. Further, the Kd (in [13]; on Adenosine kinase; at Scaffold protein ILK; in assay [14]; in assay [15]) was > 30 µM (inactive) in each case.
